Here are results for 1 compound from ChEMBL document CHEMBL2203039, “Azabenzthiazole inhibitors of leukotriene A₄ hydrolase” (Bioorg Med Chem Lett, 2012).

pIC50: −log10 of the molar value. Some results are limits rather than exact numbers.

This assay deals with Voltage-gated inwardly rectifying potassium channel KCNH2 (Homo sapiens, UniProt Q12809). Put plainly: Inhibition of dofetilide binding to human ERG by radioligand binding assay.
Voltage-gated inwardly rectifying potassium channel KCNH2, sequence (Q12809 whole entry): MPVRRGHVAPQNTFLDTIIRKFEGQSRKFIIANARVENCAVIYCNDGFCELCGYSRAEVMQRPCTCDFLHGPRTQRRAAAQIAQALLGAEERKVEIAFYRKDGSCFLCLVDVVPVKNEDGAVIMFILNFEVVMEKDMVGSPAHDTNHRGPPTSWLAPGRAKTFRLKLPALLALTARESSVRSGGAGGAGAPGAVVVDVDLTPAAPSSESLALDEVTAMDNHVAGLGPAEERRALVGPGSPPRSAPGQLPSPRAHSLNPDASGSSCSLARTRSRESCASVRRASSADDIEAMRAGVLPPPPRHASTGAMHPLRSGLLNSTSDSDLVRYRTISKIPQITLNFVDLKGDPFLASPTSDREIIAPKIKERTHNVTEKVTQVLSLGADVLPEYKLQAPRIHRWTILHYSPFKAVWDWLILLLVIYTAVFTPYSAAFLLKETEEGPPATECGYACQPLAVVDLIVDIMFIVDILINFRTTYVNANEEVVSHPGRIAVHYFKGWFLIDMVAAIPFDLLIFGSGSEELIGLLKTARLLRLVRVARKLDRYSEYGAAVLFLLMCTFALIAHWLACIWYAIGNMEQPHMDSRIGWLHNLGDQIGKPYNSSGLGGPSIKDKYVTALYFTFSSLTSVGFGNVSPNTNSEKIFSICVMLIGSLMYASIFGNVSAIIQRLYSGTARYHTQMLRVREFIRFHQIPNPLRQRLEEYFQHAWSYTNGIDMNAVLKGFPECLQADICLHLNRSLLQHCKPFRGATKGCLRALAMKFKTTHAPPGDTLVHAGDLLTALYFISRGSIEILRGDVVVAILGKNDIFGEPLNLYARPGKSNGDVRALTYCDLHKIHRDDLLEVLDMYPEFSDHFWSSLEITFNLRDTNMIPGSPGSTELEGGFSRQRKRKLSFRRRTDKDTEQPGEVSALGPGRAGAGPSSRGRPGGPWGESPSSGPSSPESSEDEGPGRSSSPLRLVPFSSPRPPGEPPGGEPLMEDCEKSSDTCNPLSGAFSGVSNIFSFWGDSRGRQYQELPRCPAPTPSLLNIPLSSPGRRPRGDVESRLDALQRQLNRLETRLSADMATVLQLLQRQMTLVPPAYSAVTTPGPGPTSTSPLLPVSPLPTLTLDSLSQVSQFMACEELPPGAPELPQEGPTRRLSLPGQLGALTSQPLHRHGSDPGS

By pIC50 is commonly meant the negative decadic logarithm of the IC50, by convention in mol/L. Low readings indicate a high IC50, high ones a low IC50. Turning to `O=C1CCCN1C1CCN(CCc2ccc(Oc3nc4ncccc4s3)cc2)CC1`, the pIC50 is below 5.00.
